What was measured:
JAK2 = JAK2 (Homo sapiens, UniProt O60674); assay: in vitro JAK2 kinase activity test, Mobility Shift Assay; type: biochemical; conditions: compound concentration 0.1 μM; read-out: Percentage of inhibition against JAK2 at 0.1 μM
Experimental: The in vitro JAK2 and FLT3 kinase activity test was performed on the compounds of the 2-aminopyrimidine backbone of the above formula I (concentration 0.1 μM) according to the present invention using Mobility Shift Assay. The control compounds Pacritinib and Fedratinib were prepared by our research group.
(§1) The kinase buffer was composed of 50 mM HEPEs (pH 7.5) and 0.0015% BRIJ-35. The stop buffer contained a mixture of 100 mM HEPES (pH 7.5), 0.015% BRIJ-35, 0.2% coating reagent #3 and 50 mM EDTA. The compound to be tested was diluted with 100% DMSO to 50 times the highest concentration required in the reaction. The dilution of compound to be tested (100 μL) was transferred to the wells of a 96-well plate. […] was added to two wells of the plate as a control group and the plate was marked as the source plate. 10 μL of compound was transferred from the source plate to a new 96-well plate to prepare an intermediate plate. In the intermediate plate, an additional 90 μL of kinase buffer was added to each well. The intermediate plate was shaken for 10 minutes, and then 5 μL of each well of the 96-well intermediate plate was copied to a 384-well plate as an analysis plate. The prepared enzyme solution was added to each well of the 384-well plate, then incubated at room temperature for 10 minutes, and then 10 μL of the prepared peptide solution (FAM-labeled peptide and ATP in kinase-based buffer) was added. The sample was incubated at 28° C. for 1 hours, and then 25 μL of buffer was added. The conversion data from the Caliper program was copied and converted to the inhibition rate.
(§2) Inhibition rate (%)=(max−conversion)/(max−min)×100.

FLT3 = molecular target: T1, FLT3 (Homo sapiens, UniProt P36888); assay: in vitro FLT3 kinase activity test, Mobility Shift Assay; type: biochemical; conditions: compound concentration 0.1 μM; read-out: Percentage of inhibition against FLT3 at 0.1 μM
T1 sequence (P36888 27-993): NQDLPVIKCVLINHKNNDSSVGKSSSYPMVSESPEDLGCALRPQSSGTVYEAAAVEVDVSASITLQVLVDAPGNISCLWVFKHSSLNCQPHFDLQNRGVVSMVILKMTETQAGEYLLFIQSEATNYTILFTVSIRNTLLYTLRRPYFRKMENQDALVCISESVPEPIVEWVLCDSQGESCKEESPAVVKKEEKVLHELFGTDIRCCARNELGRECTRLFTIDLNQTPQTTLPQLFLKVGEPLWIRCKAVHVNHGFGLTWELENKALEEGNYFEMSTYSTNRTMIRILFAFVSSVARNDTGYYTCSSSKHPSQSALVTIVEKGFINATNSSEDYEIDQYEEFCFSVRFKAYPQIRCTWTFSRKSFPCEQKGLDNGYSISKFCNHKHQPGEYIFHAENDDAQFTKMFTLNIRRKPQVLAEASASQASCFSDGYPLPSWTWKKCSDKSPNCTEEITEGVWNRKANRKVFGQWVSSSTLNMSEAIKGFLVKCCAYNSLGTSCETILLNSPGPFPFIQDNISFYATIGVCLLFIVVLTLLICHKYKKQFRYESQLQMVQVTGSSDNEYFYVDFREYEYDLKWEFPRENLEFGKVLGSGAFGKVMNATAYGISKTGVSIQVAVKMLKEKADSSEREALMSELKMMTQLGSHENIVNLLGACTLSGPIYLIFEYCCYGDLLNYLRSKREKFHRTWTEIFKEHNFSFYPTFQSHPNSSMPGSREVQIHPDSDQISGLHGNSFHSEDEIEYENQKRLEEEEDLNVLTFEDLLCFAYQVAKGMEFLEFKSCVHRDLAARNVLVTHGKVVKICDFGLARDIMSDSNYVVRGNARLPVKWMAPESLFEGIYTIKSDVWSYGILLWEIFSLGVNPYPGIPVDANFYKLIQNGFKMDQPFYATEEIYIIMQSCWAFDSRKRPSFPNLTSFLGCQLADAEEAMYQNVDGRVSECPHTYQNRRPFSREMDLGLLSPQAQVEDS
Experimental: The in vitro JAK2 and FLT3 kinase activity test was performed on the compounds of the 2-aminopyrimidine backbone of the above formula I (concentration 0.1 μM) according to the present invention using Mobility Shift Assay.
as §1, §2

Sequence of JAK2 (O60674 whole entry): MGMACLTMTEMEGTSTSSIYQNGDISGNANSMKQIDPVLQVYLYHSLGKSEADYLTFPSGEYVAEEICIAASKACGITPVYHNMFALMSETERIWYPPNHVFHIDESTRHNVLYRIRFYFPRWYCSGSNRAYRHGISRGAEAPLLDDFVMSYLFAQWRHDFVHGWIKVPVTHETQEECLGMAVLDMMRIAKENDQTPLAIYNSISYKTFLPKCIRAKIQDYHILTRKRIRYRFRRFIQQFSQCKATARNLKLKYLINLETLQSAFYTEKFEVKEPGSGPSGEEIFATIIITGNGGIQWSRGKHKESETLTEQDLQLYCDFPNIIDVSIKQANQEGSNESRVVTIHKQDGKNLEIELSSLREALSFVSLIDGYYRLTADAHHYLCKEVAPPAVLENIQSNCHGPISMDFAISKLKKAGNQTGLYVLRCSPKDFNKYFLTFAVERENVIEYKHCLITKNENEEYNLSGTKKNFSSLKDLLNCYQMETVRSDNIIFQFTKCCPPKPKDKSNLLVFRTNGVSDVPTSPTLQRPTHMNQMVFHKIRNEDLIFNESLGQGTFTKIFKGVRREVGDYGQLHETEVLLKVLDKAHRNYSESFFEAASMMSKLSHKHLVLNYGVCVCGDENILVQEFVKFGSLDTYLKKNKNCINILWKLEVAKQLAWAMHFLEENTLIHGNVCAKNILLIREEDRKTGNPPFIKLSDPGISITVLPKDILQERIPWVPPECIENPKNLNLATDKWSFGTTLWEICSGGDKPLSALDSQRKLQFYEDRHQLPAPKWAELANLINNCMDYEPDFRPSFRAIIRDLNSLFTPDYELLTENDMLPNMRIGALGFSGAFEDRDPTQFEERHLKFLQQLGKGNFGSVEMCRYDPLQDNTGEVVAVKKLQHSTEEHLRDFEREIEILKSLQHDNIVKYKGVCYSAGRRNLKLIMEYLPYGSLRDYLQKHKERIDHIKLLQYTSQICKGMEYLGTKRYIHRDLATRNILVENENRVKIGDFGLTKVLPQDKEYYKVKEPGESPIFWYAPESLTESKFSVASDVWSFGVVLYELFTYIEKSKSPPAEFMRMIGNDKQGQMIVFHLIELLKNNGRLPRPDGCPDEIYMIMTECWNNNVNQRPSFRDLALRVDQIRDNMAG

SMILES	inhibition at 0.1 µM (JAK2) [%]	inhibition at 0.1 µM (FLT3) [%]
COc1ccc(NC(=O)N2CCN(c3ccnc(Nc4ccc(N5CCOCC5)cc4)n3)CC2)cc1 [Example 1, N-(4-methoxyphenyl)-4-(2-{[4-(morpholin-4-yl)phenyl]amino}pyrimidin-4-yl)piperazine-1-carboxamide]	48.7	21.7
O=C(Nc1ccc(OC(F)(F)F)cc1)N1CCN(c2ccnc(Nc3ccc(N4CCOCC4)cc3)n2)CC1 [Example 2, N-(4-trifluoromethoxyphenyl)-4-(2-{[4-(morpholin-4-yl)phenyl]amino}pyrimidin-4-yl)piperazine-1-carboxamide]	54.3	30.5
CCc1ccc(NC(=O)N2CCN(c3ccnc(Nc4ccc(N5CCOCC5)cc4)n3)CC2)cc1 [Example 3, N-(4-ethylphenyl)-4-(2-{[4-(morpholin-4-yl)phenyl]amino}pyrimidin-4-yl)piperazine-1-carboxamide]	53.3	27.4
O=C(Nc1ccccc1)N1CCN(c2ccnc(Nc3ccc(N4CCOCC4)cc3)n2)CC1 [Example 4, N-phenyl-4-(2-{[4-(morpholin-4-yl)phenyl]amino}pyrimidin-4-yl)piperazine-1-carboxamide]	53.7	30.8
COC(=O)c1ccc(NC(=O)N2CCN(c3ccnc(Nc4ccc(N5CCOCC5)cc4)n3)CC2)cc1 [Example 5, N-(4-methoxyformylphenyl)-4-(2-{[4-(morpholin-4-yl)phenyl]amino}pyrimidin-4-yl)piperazine-1-carboxamide]	64.4	62.8
O=C(Nc1ccc([N+](=O)[O-])cc1)N1CCN(c2ccnc(Nc3ccc(N4CCOCC4)cc3)n2)CC1 [Example 7, N-(4-nitrophenyl)-4-(2-{[4-(morpholin-4-yl)phenyl]amino}pyrimidin-4-yl)piperazine-1-carboxamide]	79.3	84.4
N#Cc1ccc(NC(=O)N2CCN(c3ccnc(Nc4ccc(N5CCOCC5)cc4)n3)CC2)cc1F [Example 8, N-(4-cyano-3-fluorophenyl)-4-(2-{[4-(morpholin-4-yl)phenyl]amino}pyrimidin-4-yl)piperazine-1-carboxamide]	63.7	70.3
NC(=O)c1ccc(NC(=O)N2CCN(c3ccnc(Nc4ccc(N5CCOCC5)cc4)n3)CC2)cc1 [Example 10, N-(4-carbamoylphenyl)-4-(2-{[4-(morpholin-4-yl)phenyl]amino}pyrimidin-4-yl)piperazine-1-carboxamide]	76.3	71.2
CNC(=O)c1ccc(NC(=O)N2CCN(c3ccnc(Nc4ccc(N5CCOCC5)cc4)n3)CC2)cc1 [Example 11, N-(4-methylcarbamoylphenyl)-4-(2-{[4-(morpholin-4-yl)phenyl]amino}pyrimidin-4-yl)piperazine-1-carboxamide]	68.1	35.8
NS(=O)(=O)c1ccc(NC(=O)N2CCN(c3ccnc(Nc4ccc(N5CCOCC5)cc4)n3)CC2)cc1 [Example 12, N-(4-aminosulfonylphenyl)-4-(2-{[4-(morpholin-4-yl)phenyl]amino}pyrimidin-4-yl)piperazine-1-carboxamide]	76	69.7
CC(=O)Nc1ccc(NC(=O)N2CCN(c3ccnc(Nc4ccc(N5CCOCC5)cc4)n3)CC2)cc1 [Example 13, N-(4-acetylaminophenyl)-4-(2-{[4-(morpholin-4-yl)phenyl]amino}pyrimidin-4-yl)piperazine-1-carboxamide]	73	70.8
CN1CCN(c2ccc(Nc3nccc(N4CCN(C(=O)Nc5ccc(C(N)=O)cc5)CC4)n3)cc2)CC1 [Example 15, N-(4-carbamoylphenyl)-4-(2-{[4-(4-methylpiperazin-1-yl)phenyl]amino}pyrimidin-4-yl)piperazine-1-carboxamide]	84	85
CC(=O)c1ccc(NC(=O)N2CCN(c3ccnc(Nc4ccc(OCCN5CCCC5)cc4)n3)CC2)cc1 [Example 16, N-(4-acetylphenyl)-4-[2-({4-[2-(pyrrolidin-1-yl)ethoxy]phenyl}amino)pyrimidin-4-yl]piperazine-1-carboxamide]	45	69
CC(=O)c1ccc(NC(=O)N2CCN(c3ccnc(Nc4ccc(N5CCC(C)CC5)cc4)n3)CC2)cc1 [Example 17, N-(4-acetylphenyl)-4-(2-{[4-(4-methylpiperidin-1-yl)phenyl]amino}pyrimidin-4-yl)piperazine-1-carboxamide]	53	54
CC(=O)c1ccc(NC(=O)N2CCN(c3ccnc(Nc4ccc(OCCN5CCOCC5)cc4)n3)CC2)cc1 [Example 18, N-(4-acetylphenyl)-4-[2-({4-[2-(morpholin-4-yl)ethoxy]phenyl}amino)pyrimidin-4-yl]piperazine-1-carboxamide]	61.7	70.6
CC(=O)c1ccc(NC(=O)N2CCN(c3ccnc(Nc4ccc(OCCCN5CCOCC5)cc4)n3)CC2)cc1 [Example 19, N-(4-acetylphenyl)-4-[2-({4-[3-(morpholin-4-yl)propoxy]phenyl}amino)pyrimidin-4-yl]piperazine-1-carboxamide]	60.9	70.9
CC(=O)c1ccc(NC(=O)N2CCN(c3nc(Nc4ccc(N5CCOCC5)cc4)nc4ccsc34)CC2)cc1 [Example 24, N-(4-acetylphenyl)-4-(2-{[4-(morpholin-4-yl)phenyl]amino}thieno[3,2-d]pyrimidin-4-yl)piperazine-1-carboxamide]	44	68
CC(=O)c1ccc(NC(=O)N2CCN(c3nc(Nc4ccc(N5CCOCC5)cc4)ncc3N)CC2)cc1 [Example 27, N-(4-acetylphenyl)-4-(5-amino-2-{[4-(morpholin-4-yl)phenyl]amino}pyrimidin-4-yl)piperazine-1-carboxamide]	22.8	67.9
CC(=O)c1ccc(NC(=O)N2CCC(Nc3nc(Nc4ccc(N5CCOCC5)cc4)ncc3C)C2)cc1 (stereo not drawn) [Example 28, N-(4-acetylphenyl)-3-[(5-methyl-2-{[4-(morpholin-4-yl)phenyl]amino}pyrimidin-4-yl)amino]pyrrolidine-1-carboxamide]	69.3	57.3
CC(=O)c1ccc(NC(=O)NC2CCN(c3nc(Nc4ccc(N5CCOCC5)cc4)ncc3C)C2)cc1 (stereo not drawn) [Example 29, 1-(4-acetylphenyl)-3-[1-(5-methyl-2-{[4-(morpholin-4-yl)phenyl]amino}pyrimidin-4-yl)pyrrolidin-3-yl]urea]	57.4	75.7
CC(=O)c1ccc(NC(=O)NC2CN(c3nc(Nc4ccc(N5CCOCC5)cc4)ncc3C)C2)cc1 [Example 31, 1-(4-acetylphenyl)-3-[1-(5-methyl-2-{[4-(morpholin-4-yl)phenyl]amino}pyrimidin-4-yl)azetidin-3-yl]urea]	21.9	50
